This is an account of results in publication PMC7390679 (Bioorganic chemistry, 2020).

Each structure is given as a SMILES string. Where a name gives a salt, the structure may show the parent alone. Read-outs that look alike come from different tables or passages of the source.

The test system of series [1] is Vero C1008 cells. Nature of the series: Cytotoxicity in Vero C1008 cells, neutral red method. The format is cell-based. To be noted: read-out: CC50 in Vero C1008 cells.
Series [2] concerns EV-A71 Tainan/4643/98. Kind of series: CPE antiviral assay, EV-A71 Tainan/4643/98 in RD cells. The format is cell-based. The following applies: read-out: EC50 against EV-A71 Tainan.
Series [3] relates to CVB3. Kind of series: CPE antiviral assay, CVB3 in Vero C1008 cells. The format is cell-based.
In series [4] the test system is RD cells. Kind of series: Cytotoxicity in RD cells, neutral red method. To be noted: read-out: CC50 in RD cells, mean ± SD of three repeats.
The target in series [5] is CVB3 2C protein (Coxsackievirus B3, UniProt P03313). Kind of series: Differential scanning fluorimetry. The format is binding. The following applies: 1 mM compound, 4.5 μM 2C, DSF. For orientation: In DSF a fluorescence change marks the thermal transition of the protein.
Chain of CVB3 2C protein (P03313 1101-1429): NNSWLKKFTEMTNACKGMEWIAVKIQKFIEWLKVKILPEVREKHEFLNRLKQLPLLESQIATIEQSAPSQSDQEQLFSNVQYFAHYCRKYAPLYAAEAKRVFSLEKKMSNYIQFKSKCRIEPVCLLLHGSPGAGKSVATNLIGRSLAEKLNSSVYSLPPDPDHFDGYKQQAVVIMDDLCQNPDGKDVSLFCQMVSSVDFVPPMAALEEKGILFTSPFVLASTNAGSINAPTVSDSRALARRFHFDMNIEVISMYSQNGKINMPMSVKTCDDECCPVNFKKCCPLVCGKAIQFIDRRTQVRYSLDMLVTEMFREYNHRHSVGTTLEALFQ
Where [6] appears, read: read-out: EC50 against CVB3, Vero C1008 cells, CPE assay.
The mark [7] stands for this setting: Enterovirus B, CVB3, Vero C1008, read-out: EC50 against CVB3.

One may read the CC50 as the concentration at which the toxic effect on the cells reaches its halfway point. In the case of `CNCCC(Oc1ccc(C(F)(F)F)cc1)c1ccccc1` (stereo not drawn) [fluoxetine], the CC50 in series [1] is 11 µM.
A word on the EC50: it is the midpoint of the concentration-response curve. Turning to `Cc1ccc2c(c1)c1c3n2CCNC3CCC1` (stereo not drawn) [pirlindole mesylate], the EC50 is over 20 µM in series [2] (RD cells, CPE assay) and 3.6 µM in series [3] (setting [6]). The cytotoxic concentration (CC50) in series [4] is 19 µM; in series [1] it was 40.5 µM.
Take `COc1ccc(CC(C)NCC(O)c2ccc(O)c(NC=O)c2)cc1` (stereo not drawn) [formoterol]: the EC50 was over 100 µM in series [2] (Enterovirus A, EVA71, RD) and 9.9 µM in series [3] (setting [7]). Also, the CC50 in series [1] is over 300 µM.
Take `CCCCOc1cc(C(=O)NCCN(CC)CC)c2ccccc2n1` [dibucaine]: the EC50 in series [2] (Enterovirus A, EVA71, RD) is over 10 µM; in series [3] (setting [7]), 1.3 µM.
For the molecule `N=C(N)N` [guanidine], in series [5], the “Tm shift of CVB3 2C protein” value was determined as 1.77 °C. Further, the EC50 in series [2] (RD cells, CPE assay) is 902 µM; in series [3] (setting [6]), 224 µM. The half-maximal cytotoxic concentration (CC50) in series [4] was over 1000 µM; in series [1] it was over 3000 µM.
